Laboratory results published in patent publication US20110257108A1, “SYNTHESIS AND ACTIVITY OF LACTOSE ESTERS” (Utah State University, priority 2010, published 2011).

What was measured:
[1] = Procedure: Aliquots, 600 μL, of each filtered sample were dried by a Savant SpeedVac system. The dry sugar in each tube was re-suspended in 600 μL de-ionized water. […] The amount of sugar in each sample was determined by comparing peak areas to the lactose-in-water control.
[2] = tested on: Enterococcus faecalis (ATCC 700802); assay: Microbial growth inhibition (microtiter OD 600 nm, 48 hours); assay type: cell-based; details: gram positive, FIG. 7
Procedure: (§1) Referring now to FIG. 7 and Table 4, the microbial inhibitory characteristics of LML synthesized and purified as described above, were investigated against Enterococcus faecalis (ATCC 700802), Listeria monocytogenes, Staphyloccus suis, Escherichia coli H7P:0157H7 (ATCC 35150), Salmonella typhimurium (ATCC 700720) and Klebsiella pneumoniae (ATCC 700721). Cultures were grown in appropriate microbial media with antibiotics and diluted to 10^5 colony forming units (CFU) per mL. Cultures (0.5 mL or 10^2.5 CFU total) were added to microtiter wells and an initial optical density (OD) at 600 nm was recorded. For treatments, LML in concentrations ranging from 0.001 to 0.1% was added to individual microtiter wells and the OD was again measured after 48 hours. Controls were treated similarly, but without the addition of LML. Percent growth inhibition was determined by comparing the OD reading for the controls and treatments.

[3] = tested on: Escherichia coli H7P:0157H7 (ATCC 35150); assay: as above; assay type: cell-based; details: gram negative; LML 0.001 to 0.1%; FIG. 7
Procedure: as §1

[4] = tested on: Klebsiella pneumoniae (ATCC 700721); assay: as above; assay type: cell-based; details: gram negative; LML 0.001 to 0.1%; FIG. 7
Procedure: as §1

[5] = tested on: Listeria monocytogenes; assay: as above; assay type: cell-based; details: gram positive, FIG. 7
Procedure: as §1

[6] = tested on: Salmonella typhimurium (ATCC 700720); assay: as above; assay type: cell-based; details: gram negative; LML 0.001 to 0.1%; FIG. 7
Procedure: as §1

[7] = tested on: Staphyloccus suis; assay: as above; assay type: cell-based; details: gram positive, FIG. 7
Procedure: as §1

[8] = tested on: clinical isolates of Listeria monocytogenes; assay: Microbial inhibitory studies with clinical isolates (microtitre well plate method, plate counts); assay type: cell-based
Description: Referring now to FIGS. 8 through 12, in light of the microbial inhibitory effect shown with Listeria monocytogenese, we obtained clinical isolates of Listeria monocytogenes from the International Life Science Institute Database, Cornell University and tested LM at the same concentrations as listed above with the clinical isolate. Inhibitory effects against clinical isolates of Listeria monocytogenese are shown in FIGS. 8, 9, 10, 11 and 12 (inhibition shown is percent growth inhibition). The clinical isolates are described in Table 5.
Still referring to FIGS. 8 through 12, microbial inhibitory studies were carried out in microtitre well plate method. Cultures were grown in appropriate microbial media with antibiotics and diluted to 10^5 colony forming units (CFU) per mL. Cultures (0.5 mL or 10^2.5 CFU total) were added to microtiter wells and an initial optical density (OD) at 600 nm was recorded. The studies were conducted by adding different concentrations of LML as described above with appropriate controls (media only, media plus cells, media plus cells and 0.1% Polysorbate 80, same amount of ethanol as in the vol of LML plus 0.1% polysorbate 80 with cells). Plate counts of all controls and treatments were done. For each strain and treatment, the experiments were done 6 times and replicated at least once. Data shown has a coefficient of variation of less than 10%. […]

Molecule	solubility in 2M2B [1]	solubility in the other solvents [1]	growth inhibition ([2]; LML 0.005% and less)	growth inhibition ([2]; LML 0.1% (1 mg/mL))	susceptibility to inhibition [3]	susceptibility to inhibition [4]	growth inhibition ([5]; LML 0.005% and less)	growth inhibition ([5]; LML 0.1% (1 mg/mL))	susceptibility to inhibition [6]	growth inhibition ([7]; LML 0.005% and less)	growth inhibition ([7]; LML 0.1% (1 mg/mL))	percent growth inhibition ([8]; LML 1.0 mg/mL, each strain (J1-177, C1-056, N3-013, R2-499, N1-227), with 0.1% Polysorbate 80, versus control with ethanol and tween)	type of inhibition (plate counts) ([8]; plate counts of treatments compared to the controls)
OC[C@H]1O[C@@](CO)(O[C@H]2O[C@H](CO)[C@@H](O)[C@H](O)[C@H]2O)[C@@H](O)[C@@H]1O [sucrose]	700-800 micromol/L solvent	50-200 micromol/L solvent											
lactose monolaurate [LML]			limited inhibition	inhibited	minimal susceptibility	minimal susceptibility	limited inhibition	inhibited	minimal susceptibility	limited inhibition	inhibited	70-90%	bacterial static
